{"source": "patent US20080014584A1", "about": "“MODULATING ANDROGEN RECEPTOR ACTIVITY” (MAYO FOUNDATION FOR MEDICAL EDUCATION AND RESEARCH, priority 2006, published 2008)", "assay_type_in_all_cases": "cell-based", "settings_in_all_cases": "1 nM mibolerone, 24 hours", "key": {"[1]": {"target": "T1, AR (Homo sapiens, UniProt P10275, T878A)", "T1 sequence (P10275 1-920 T878A)": "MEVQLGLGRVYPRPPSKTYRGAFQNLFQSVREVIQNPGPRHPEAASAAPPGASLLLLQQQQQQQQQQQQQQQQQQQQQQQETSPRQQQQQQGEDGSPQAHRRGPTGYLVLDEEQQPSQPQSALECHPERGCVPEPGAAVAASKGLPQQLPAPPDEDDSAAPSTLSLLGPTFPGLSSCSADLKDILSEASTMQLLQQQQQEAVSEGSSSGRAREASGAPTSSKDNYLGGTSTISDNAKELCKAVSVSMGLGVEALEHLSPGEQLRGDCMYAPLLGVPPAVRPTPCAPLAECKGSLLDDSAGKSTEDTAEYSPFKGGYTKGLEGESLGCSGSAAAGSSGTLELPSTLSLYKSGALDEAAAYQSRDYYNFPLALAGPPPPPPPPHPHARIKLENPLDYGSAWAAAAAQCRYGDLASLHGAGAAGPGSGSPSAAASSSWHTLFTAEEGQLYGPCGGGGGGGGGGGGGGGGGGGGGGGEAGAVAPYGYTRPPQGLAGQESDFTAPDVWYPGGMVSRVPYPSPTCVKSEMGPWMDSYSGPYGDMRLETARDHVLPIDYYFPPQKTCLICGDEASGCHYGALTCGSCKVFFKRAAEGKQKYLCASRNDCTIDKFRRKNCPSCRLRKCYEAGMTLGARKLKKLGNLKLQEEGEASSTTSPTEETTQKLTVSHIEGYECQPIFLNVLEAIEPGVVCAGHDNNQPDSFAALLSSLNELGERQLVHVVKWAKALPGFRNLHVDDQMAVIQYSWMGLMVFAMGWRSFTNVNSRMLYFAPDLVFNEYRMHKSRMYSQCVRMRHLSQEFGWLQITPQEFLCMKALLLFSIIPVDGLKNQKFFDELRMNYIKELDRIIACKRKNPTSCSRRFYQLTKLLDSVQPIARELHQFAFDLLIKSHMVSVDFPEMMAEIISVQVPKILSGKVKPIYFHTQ", "test": "PSA mRNA expression (Northern blot) in LNCaP cells", "parameters": "The androgen depletion independent (ADI) LNCaP-derived C4-2 cell line was purchased from UroCor; endogenous in cells; host or cells: C4-2", "procedure": "(§1) For androgen response experiments, LNCaP and C4-2 cells were grown in serum-free medium or medium supplemented with 10% charcoal stripped (steroid depleted) serum (CSS) for 48 hours. […] The cells were cultured for an additional 24 hours and then harvested. For C4-2 siRNA-transfection experiments, culture medium was replaced 24 hours post-transfection with RPMI containing 5% CSS. The cells were harvested after 48 hours.\nTotal cellular RNA was isolated using acid-guanidinium phenol/chloroform extraction as described elsewhere (Chomczynski and Sacchi, Anal Biochem. 162:156-9, (1987)). Equal amounts of RNA (15 μg per lane) were fractionated on 1% denaturing formaldehyde-agarose gels. RNA was transferred to Hybond nylon membranes (Amersham, Piscataway, N.J.), UV cross-linked, and then hybridized with cDNA probes specific for PSA or GAPDH labeled with α^32P-dCTP using a RadPrime labeling kit (Invitrogen). Autoradiography was performed at −80° C. using an intensifier screen (Kodak)."}, "[2]": {"target": "T1, AR", "test": "PSA mRNA expression (Northern blot) in C4-2 cells", "parameters": "The androgen depletion independent (ADI) LNCaP-derived C4-2 cell line was purchased from UroCor; endogenous in cells; host or cells: C4-2", "procedure": "as §1\nFor siRNA transfections, C4-2 cells were seeded at a density of 1.8×10^6 cells on 10 cm dishes in antibiotic-free RPMI 1640 containing 10% FBS. Cells were transfected 24 hours later with 500 pmol of a pool of four siRNAs targeted to the AR (AR SmartPool; Dharmacon, Lafayette, Colo.), or a pool of four non-targeted, control siRNAs (Dharmacon) using 25 μg Lipofectamine (Invitrogen, Carlsbad, Calif.) according to the manufacturer's protocol.\nTotal cellular RNA was isolated using acid-guanidinium phenol/chloroform extraction as described elsewhere (Chomczynski and Sacchi, Anal Biochem. 162:156-9, (1987)). Equal amounts of RNA (15 μg per lane) were fractionated on 1% denaturing formaldehyde-agarose gels. RNA was transferred to Hybond nylon membranes (Amersham, Piscataway, N.J.), UV cross-linked, and then hybridized with cDNA probes specific for PSA or GAPDH labeled with α^32P-dCTP using a RadPrime labeling kit (Invitrogen). […]"}, "[3]": {"target": "T1, AR", "test": "PSAenh(ARE)-E4-LUC luciferase reporter assay in LNCaP cells", "parameters": "endogenous in cells", "description": "The cells were harvested after an additional 24 hours. The transfection efficiency was typically 50-70%."}}, "data": [{"smiles": "C[C@@H]1CC2=CC(=O)CC[C@@H]2[C@H]2CC[C@@]3(C)[C@@H](CC[C@]3(C)O)[C@@H]21", "note": "[mibolerone]", "values": [{"measurement": "PSA mRNA expression on androgen treatment", "setting": "[1]", "result": "induced high levels of PSA mRNA expression"}, {"measurement": "PSA expression on androgen treatment", "setting": "[2]", "result": "further increased"}, {"measurement": "activation of the ARE-driven promoter PSAenh(ARE)E4-LUC", "setting": "[3]", "result": "robust activation"}]}]}
